# According to patent US20220220041A1, “USE OF UREA AS AN ANTIMICROBIAL ADDITIVE IN AN AQUEOUS SUSPENSION” (Omya International AG, priority 2019, published 2022):
# Key:
# [1] = system: non-sterile calcium carbonate slurry (H90), environmental bacteria; assay: Example 1 preservation efficacy: sterile H90 slurry with dry urea, up to three inoculations with non-sterile H90 slurry, TVC; assay type: cell-based; conditions: for TVC cfu/ml 2nd Inoculation / TVC cfu/ml 3rd Inoculation / TVC cfu/ml 1st Inoculation: calcium carbonate 75%, water 25% w/w, H90 slurry; for TVC cfu/ml 1st Inoculation: 3 days at 30° C. after inoculation
# Protocol: (§1) All quoted bacterial counts (Total viable counts (TVC) values), unless otherwise indicated, are given in cfu/ml and determined after at least 2 days following plate-out and incubation at 30° C. and in accordance with the counting method described in “Bestimmung von aerobe mesophilen Keimen”, Schweizerisches Lebensmittelbuch, chapter 56, section 7.01, edition of 1985, revised version of 1988.
# (§2) Unless otherwise stated, per tryptic soy agar plate (TSA, prepared using BD 236950) 0.1 ml of a solution or suspension is plated. Counts from 10000 cfu/ml to 99999 cfu/ml are reported as >1E4 cfu/ml. Counts from 100000 cfu/ml to 999999 cfu/ml are reported as >1E5 cfu/ml. Counts above 1000000 cfu/ml are reported as >1E6 cfu/ml.
# (§3) Non-sterile slurries (H60 or H90) contain contamination with environmental bacteria at a TVC>100000 cfu/ml. The contamination originates spontaneously and a bacterial burden of at least>100000 cfu/ml is confirmed prior use as inoculum by TVC. The following bacterial species are known to occur, as identified by 16S RNA sequencing or MALDI-TOF-MS analysis: Rhizobium radiobacter, Brevundimonas intermedia, Brevundimonas diminiuta, Sphingomonas sp., Pseudomonas stutzeri, Pseudomonas sp., Comomonas aquatic.
# 50 g sterile slurry H90 with a solid content of 75 wt.-%, based on the total weight of the H90 slurry is supplemented with different concentrations of dry urea. The samples are then stored for 3 days at 30° C. After the storage, the samples are inoculated with 1 ml non-sterile calcium carbonate slurry (H90), incubated for 3 days at 30° C. and the TVC is determined. Samples are further inoculated with 1 ml non-sterile calcium carbonate slurry (H90). Up to three inoculations are performed.
# Pseudomonas putida = assay: Example 2 preservation efficacy: H60 slurry with 61 wt.-% urea solution, P. putida inoculum, TVC; assay type: cell-based; conditions: 30° C.
# Protocol: as §1, §2
# For the preparation of inoculum with a single bacterial species (for example Escherichia coli (DSMZ 46295) or Pseudomonas putida), bacteria are spread onto Tryptic soy broth agar (BD, 236950) by dilution streaking followed by incubation at 30° C. for at least 24 h until colonies appear. Overnight cultures are generated by inoculation of 3 ml Tryptic soy broth (Fluka 22092) with a single colony followed incubation with agitation at […] at 30° C. for 24 h.
# (§4) 50 g sterile slurry H60 with a solid content of 76.5 wt.-%, based on the total weight of the H60 slurry is supplemented with different amounts of 61 wt.-% urea solution or water. The samples are then inoculated with 1 ml non-sterile calcium carbonate slurry (H60), 1 ml non-sterile calcium carbonate slurry (H90), 0.02 ml overnight culture of Escherichia coli (DSMZ 46295) and 0.02 ml overnight culture of Pseudomonas putida. The control samples are not inoculated. Samples are incubated at 30° C. and the TVC and pH are determined at various time points (0 day, 1 day, 4, days, 8 days, 9 days and/or 13 days).
# [2] = system: non-sterile calcium carbonate slurry (H60), environmental bacteria; assay: Example 2 preservation efficacy: H60 slurry with 61 wt.-% urea solution, non-sterile H60 inoculum, TVC; assay type: cell-based; conditions: 30° C.
# Protocol: as §1, §2, §3, §4
# [3] = system: non-sterile calcium carbonate slurry (H90), environmental bacteria; assay: Example 2 preservation efficacy: H60 slurry with 61 wt.-% urea solution, non-sterile H90 inoculum, TVC; assay type: cell-based; conditions: 30° C.
# Protocol: as §1, §2, §3, §4
# [4] = system: non-sterile calcium carbonate slurry (H60), environmental bacteria; assay: Example 3 preservation efficacy: H60 slurry with industrial grade urea solution, non-sterile H60 inoculum, TVC; assay type: cell-based; conditions: industrial grade urea 5.5%, calcium carbonate 69%, water 25.5% w/w, 30° C.
# Protocol: as §1, §2, §3
# 50 g sterile calcium carbonate slurry (H60) with a solid content of 77.3 wt.-%, based on the total weight of the H60 slurry is supplemented with industrial grade 50% (w/w) urea solution (Yara Canda Inc.) or water to different final concentrations. The industrial grade contained natural resident (i.e. bacteria in a non-growing state) bacteria. The bacterial of the industrial urea burden is 5 cfu/3 ml as determined by TVC. The species are identified by characterizing the grown colonies from the TVC by 16 S RNA sequencing, known to the person skilled in the art.
# The samples are further artificially inoculated with 1 ml non-sterile calcium carbonate slurry (H60), 1 ml non-sterile calcium carbonate slurry (H90), 0.02 ml overnight culture of Escherichia coli (DSMZ 46295) and 0.02 ml overnight culture Pseudomonas putida. The control sample are not inoculated. […]
# rats = conditions: cited from earlier work
# [5] = Table 2, urea 2.75%, calcium carbonate 73.1%, water 24.15% w/w
# [6] = Table 2, urea 7.6%, calcium carbonate 67.1%, water 25.3% w/w
# [7] = Table 3, urea 0.65%, calcium carbonate 75.7%, water 23.65% w/w
# [8] = Table 3, urea 2.75%, calcium carbonate 73.1%, water 24.15% w/w
smiles,measurement,setting,value
NC(N)=O [urea],preservation of calcium carbonate slurries from bacterial growth,[1]; low urea concentrations (table 1: 0.025-0.075%),not able to preserve
same,TVC cfu/ml 2nd Inoculation,[1]; urea 0.025%,>1E6 cfu/ml
same,TVC cfu/ml 3rd Inoculation,[1]; urea 0.025%,>1E6 cfu/ml
same,TVC cfu/ml 1st Inoculation,[1]; urea 0.025%,>1E6 cfu/ml
same,TVC cfu/ml 2nd Inoculation,[1]; urea 0.05%,>1E6 cfu/ml
same,TVC cfu/ml 3rd Inoculation,[1]; urea 0.05%,>1E6 cfu/ml
same,TVC cfu/ml 1st Inoculation,[1]; urea 0.05%,>1E6 cfu/ml
same,TVC cfu/ml 2nd Inoculation,[1]; urea 0.075%,>1E6 cfu/ml
same,TVC cfu/ml 3rd Inoculation,[1]; urea 0.075%,>1E6 cfu/ml
same,TVC cfu/ml 1st Inoculation,[1]; urea 0.075%,>1E6 cfu/ml
same,TVC cfu/ml Day 1,Pseudomonas putida; [5],<100 cfu/ml
same,TVC cfu/ml Day 4,Pseudomonas putida; [5],<100 cfu/ml
same,TVC cfu/ml Day 8,Pseudomonas putida; [5],100 cfu/ml
same,TVC cfu/ml Day 13,Pseudomonas putida; [5],<100 cfu/ml
same,TVC cfu/ml Day 1,Pseudomonas putida; [6],<100 cfu/ml
same,TVC cfu/ml Day 4,Pseudomonas putida; [6],<100 cfu/ml
same,TVC cfu/ml Day 8,Pseudomonas putida; [6],<100 cfu/ml
same,TVC cfu/ml Day 13,Pseudomonas putida; [6],<100 cfu/ml
same,TVC cfu/ml Day 1,Pseudomonas putida; [7],>1E5 cfu/ml
same,TVC cfu/ml Day 4,Pseudomonas putida; [7],>1E5 cfu/ml
same,TVC cfu/ml Day 1,Pseudomonas putida; [8],<100 cfu/ml
same,TVC cfu/ml Day 4,Pseudomonas putida; [8],<100 cfu/ml
same,TVC cfu/ml Day 9,Pseudomonas putida; [8],<100 cfu/ml
same,TVC cfu/ml Day 4,[2]; [5],<100 cfu/ml
same,TVC cfu/ml Day 8,[2]; [5],<100 cfu/ml
same,TVC cfu/ml Day 13,[2]; [5],<100 cfu/ml
same,TVC cfu/ml Day 1,[2]; [6],<100 cfu/ml
same,TVC cfu/ml Day 4,[2]; [6],<100 cfu/ml
same,TVC cfu/ml Day 8,[2]; [6],<100 cfu/ml
same,TVC cfu/ml Day 13,[2]; [6],<100 cfu/ml
same,TVC cfu/ml Day 1,[2]; [7],>1E5 cfu/ml
same,TVC cfu/ml Day 4,[2]; [7],>1E5 cfu/ml
same,TVC cfu/ml Day 4,[2]; [8],100 cfu/ml
same,TVC cfu/ml Day 9,[2]; [8],<100 cfu/ml
same,TVC cfu/ml Day 1,[3]; [5],<100 cfu/ml
same,TVC cfu/ml Day 4,[3]; [5],<100 cfu/ml
same,TVC cfu/ml Day 8,[3]; [5],<100 cfu/ml
same,TVC cfu/ml Day 13,[3]; [5],<100 cfu/ml
same,TVC cfu/ml Day 1,[3]; [6],<100 cfu/ml
same,TVC cfu/ml Day 4,[3]; [6],<100 cfu/ml
same,TVC cfu/ml Day 8,[3]; [6],<100 cfu/ml
same,TVC cfu/ml Day 13,[3]; [6],<100 cfu/ml
same,TVC cfu/ml Day 1,[3]; [7],>1E5 cfu/ml
same,TVC cfu/ml Day 4,[3]; [7],>1E5 cfu/ml
same,TVC cfu/ml Day 1,[3]; [8],<100 cfu/ml
same,TVC cfu/ml Day 4,[3]; [8],<100 cfu/ml
same,TVC cfu/ml Day 9,[3]; [8],<100 cfu/ml
same,TVC cfu/ml Day 4,[4],<100 cfu/ml
same,TVC cfu/ml Day 8,[4],<100 cfu/ml
same,TVC cfu/ml Day 11,[4],<100 cfu/ml
same,TVC cfu/ml Day 13,[4],<100 cfu/ml
same,LD50,rats,15000 mg/kg
